Results reported in ChEMBL document CHEMBL1201862, “PubChem BioAssay data set” (2004).
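Step 1: Grow cells in 96-well plates. Step 2: Expose to compound for 48 hours at 5 concentrations. Step 3: Interpolate endpoints linearly; if unreached, use highest concentration. GI50: concentration for 50% inhibition of growth.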 The source made the active and inactive calls. Rule as the data show it: active = GI50 up to about 1.1 µM and inactive = higher.

Columns and labels:
Assay in all cases: NCI tumour cell line growth inhibition, 48 h
OVCAR-5 = system: OVCAR-5
OVCAR-8 = system: OVCAR-8
HCC 2998 = system: HCC 2998
K562 = system: K562
A549 = system: A549
SF-539 = system: SF-539
MOLT-4 = system: MOLT-4
RPMI-8226 = system: RPMI-8226
M19-MEL = system: M19-MEL
RXF 393 = system: RXF 393
EKVX = system: EKVX
SNB-75 = system: SNB-75
HOP-62 = system: HOP-62
U-251 = system: U-251
PC-3 = system: PC-3
MDA-MB-435 = system: MDA-MB-435
MDA-N = system: MDA-N
BT-549 = system: BT-549
NCI/ADR-RES = system: NCI/ADR-RES
T47D = system: T47D

SMILES	GI50 (OVCAR-5)	GI50 (OVCAR-8)	GI50 (HCC 2998)	GI50 (K562)	GI50 (A549)	GI50 (SF-539)	GI50 (MOLT-4)	GI50 (RPMI-8226)	GI50 (M19-MEL)	GI50 (RXF 393)	GI50 (EKVX)	GI50 (SNB-75)	GI50 (HOP-62)	GI50 (U-251)	GI50 (PC-3)	GI50 (MDA-MB-435)	GI50 (MDA-N)	GI50 (BT-549)	GI50 (NCI/ADR-RES)	GI50 (T47D)
CCC(=O)CCC1=Nc2nnc(CCCCc3nnc4n3C(=O)C(CCC(=O)CC)=N4)n2C1=O	> 100 µM (inactive)	> 100 µM (inactive)	> 100 µM (inactive)	> 100 µM (inactive)	> 100 µM (inactive)	> 100 µM (inactive)	> 100 µM (inactive)	> 100 µM (inactive)	> 100 µM (inactive)	> 100 µM (inactive)	> 100 µM (inactive)	> 100 µM (inactive)	> 100 µM (inactive)							
Cc1ccccc1C(=O)Oc1ccc(OCc2ccccc2)cc1	45.3 µM (inactive)	> 100 µM (inactive)	35.9 µM (inactive)	47.6 µM (inactive)	35.2 µM (inactive)	> 100 µM (inactive)	9.44 µM (inactive)	25.6 µM (inactive)	> 100 µM (inactive)	39.1 µM (inactive)	> 100 µM (inactive)	> 100 µM (inactive)	> 100 µM (inactive)	> 100 µM (inactive)						
c1ccc(C2SCc3nc4ccccc4n32)cc1 (centres undefined)	> 100 µM (inactive)	65 µM (inactive)	30.4 µM (inactive)	32.8 µM (inactive)	50.1 µM (inactive)	22.5 µM (inactive)	28.2 µM (inactive)	20.1 µM (inactive)	41.7 µM (inactive)	53.2 µM (inactive)	39.4 µM (inactive)	3.14 µM (inactive)	43.8 µM (inactive)	58.7 µM (inactive)						
COc1ccc(/C=C2\CCC(CN3CCOCC3)C2=O)cc1 (centres undefined)	9.06 µM (inactive)	2.74 µM (inactive)	5.48 µM (inactive)	1.03 µM (active)	9.57 µM (inactive)	5.92 µM (inactive)	1.83 µM (inactive)	0.552 µM (active)	4.31 µM (inactive)	0.942 µM (active)	7.57 µM (inactive)	4.68 µM (inactive)	10.5 µM (inactive)	17.3 µM (inactive)	3.15 µM (inactive)	2.05 µM (inactive)	2.79 µM (inactive)	2.25 µM (inactive)	2.62 µM (inactive)	
O=C1C=C(N2CCCC2)C=C(N2CCCC2)C1	> 100 µM (inactive)	> 100 µM (inactive)	> 100 µM (inactive)	> 100 µM (inactive)	> 100 µM (inactive)		> 100 µM (inactive)	> 100 µM (inactive)	28.1 µM (inactive)	> 100 µM (inactive)	> 100 µM (inactive)	85.1 µM (inactive)	> 100 µM (inactive)	> 100 µM (inactive)						
Cc1cccc(NC2=NC(=O)C(CC(=O)Nc3cccc(C)c3C)S2)c1 (centres undefined)	> 100 µM (inactive)	> 100 µM (inactive)	> 100 µM (inactive)		> 100 µM (inactive)		24.3 µM (inactive)	85.9 µM (inactive)	> 100 µM (inactive)	> 100 µM (inactive)	> 100 µM (inactive)	> 100 µM (inactive)	> 100 µM (inactive)	> 100 µM (inactive)						
Clc1ccc(-c2c(C3=NCCN3)nnn2-c2ccccc2)cc1	> 100 µM (inactive)	> 100 µM (inactive)	> 100 µM (inactive)	61.1 µM (inactive)	> 100 µM (inactive)	> 100 µM (inactive)	80.2 µM (inactive)	> 100 µM (inactive)	> 100 µM (inactive)	> 100 µM (inactive)	> 100 µM (inactive)	> 100 µM (inactive)	> 100 µM (inactive)	> 100 µM (inactive)						
Cc1nc2c(sc(=S)n2-c2ccccc2)c2nc3ccccc3n12	> 100 µM (inactive)	> 100 µM (inactive)	> 100 µM (inactive)	> 100 µM (inactive)		> 100 µM (inactive)	> 100 µM (inactive)	> 100 µM (inactive)	> 100 µM (inactive)	> 100 µM (inactive)	> 100 µM (inactive)	> 100 µM (inactive)	> 100 µM (inactive)	> 100 µM (inactive)						
C=C1C(=O)OC2/C=C(CO)/C=C\C3OC3(C)CC(OC(=O)/C(C)=C/COC(C)=O)C12 (centres undefined)	13.9 µM (inactive)	2.47 µM (inactive)	13.4 µM (inactive)	3.3 µM (inactive)	11.9 µM (inactive)	1.96 µM (inactive)	0.802 µM (active)	0.716 µM (active)	1.84 µM (inactive)	1.85 µM (inactive)	3.78 µM (inactive)	7.8 µM (inactive)	20 µM (inactive)	3.95 µM (inactive)	10 µM (inactive)	2 µM (inactive)	1.75 µM (inactive)	1.57 µM (inactive)	3.97 µM (inactive)	2.65 µM (inactive)
O=C(Nc1cccc2ccccc12)Oc1ccccc1C1CCCCC1	17.3 µM (inactive)	15.9 µM (inactive)	18.5 µM (inactive)	24.2 µM (inactive)	21.4 µM (inactive)	17.5 µM (inactive)	15.9 µM (inactive)	30.3 µM (inactive)	22.3 µM (inactive)	15 µM (inactive)	22.6 µM (inactive)	13.9 µM (inactive)	19 µM (inactive)	13.4 µM (inactive)						
CCOC(=O)C1=C(O)C(=O)c2ccoc2C1=O	> 100 µM (inactive)	> 100 µM (inactive)	> 100 µM (inactive)	> 100 µM (inactive)	> 100 µM (inactive)	> 100 µM (inactive)	> 100 µM (inactive)	> 100 µM (inactive)	> 100 µM (inactive)	> 100 µM (inactive)	> 100 µM (inactive)	> 100 µM (inactive)	> 100 µM (inactive)	> 100 µM (inactive)						
CC(=O)OCC1OC(n2c(=S)n(-c3ccccc3)c(=O)c3cc(Br)ccc32)C(OC(C)=O)C1OC(C)=O (centres undefined)	> 100 µM (inactive)	> 100 µM (inactive)	> 100 µM (inactive)		> 100 µM (inactive)	> 100 µM (inactive)	53.8 µM (inactive)	51.3 µM (inactive)	> 100 µM (inactive)	> 100 µM (inactive)	> 100 µM (inactive)	83.9 µM (inactive)	> 100 µM (inactive)	> 100 µM (inactive)						
C=CCC1C(=O)C(C(=O)OC)N2CCc3c([nH]c4ccccc34)C12 (centres undefined)	> 100 µM (inactive)	> 100 µM (inactive)	> 100 µM (inactive)	> 100 µM (inactive)	> 100 µM (inactive)	> 100 µM (inactive)	64.9 µM (inactive)	59.2 µM (inactive)	> 100 µM (inactive)	> 100 µM (inactive)	> 100 µM (inactive)		> 100 µM (inactive)	> 100 µM (inactive)						
O=c1c2ccccc2n2cnc3ccc(NCCNCCO)c1c32	2.02 µM (inactive)	0.855 µM (active)	1.77 µM (inactive)	1.34 µM (inactive)	1.05 µM (active)	3.24 µM (inactive)	0.359 µM (active)	2.2 µM (inactive)	2.96 µM (inactive)	0.757 µM (active)	2.56 µM (inactive)	1.86 µM (inactive)	1.4 µM (inactive)	2.1 µM (inactive)	1.91 µM (inactive)	1.52 µM (inactive)	1.9 µM (inactive)	3.66 µM (inactive)	2.81 µM (inactive)	4.76 µM (inactive)
CC1=C2CC[C@@]3(C)C(=CCC3O)C2(C)CCC1=O (some centres undefined)	> 100 µM (inactive)	> 100 µM (inactive)	> 100 µM (inactive)		> 100 µM (inactive)	> 100 µM (inactive)	> 100 µM (inactive)	> 100 µM (inactive)	> 100 µM (inactive)	> 100 µM (inactive)	27.1 µM (inactive)	83 µM (inactive)	> 100 µM (inactive)	> 100 µM (inactive)						
